Data reported in EP4656640A1, “IRAK4 DEGRADER AND USE THEREOF” (Shanghai Qilu Pharmaceutical Research and Development …, priority 2023, dated 2024).
Where two headings read alike, the source gives them in different places.

How the values were obtained:
[1] = system: IL-6 secretion; assay: Inhibition of induced IL-6 secretion in human PBMCs (CBA); type: cell-based; settings: PBMC
Procedure: (§1) The effect of PROTAC small molecules on inflammatory factors in PBMCs downstream of IRAK4 induced by TLR and IL-1 was detected based on the CBA (cytometric bead array) method.
(§2) Step 2: The density of PBMCs was adjusted to 1 E6/mL, and 150 µL of PBMCs in 1640 complete medium were seeded into a 96-well plate, followed by incubation at 37°C for 1 hour.
(§3) Step 3: 50 µL of serially diluted small molecule (working concentration: 10000 nM, 1:3 dilution) drugs were inoculated into the plate in a 37°C incubator for 8 hours.
(§4) Step 4: 10 µL of stimulants were added respectively, with final concentrations of 100 ng/mL for LPS, 1 µg/mL for R848, and 100 ng/mL for IL-1β.
(§5) Step 5: CBA assay. The concentrations of IL-6 and TNF-α in the cell culture supernatant were determined using Hu IL-6 CBA Flex Set A7 and Hu TNF- CBA Flex Set D9.
(§6) Step 6: Standard samples were prepared: 2500 pg/mL, 1250 pg/mL,...0. A 1:2 serial dilution was performed to obtain 10 concentrations.
(§7) Step 7: The mixed capture beads were resuspended in capture bead diluent (1:50), and cell culture supernatant (50 µL) was added, followed by incubation at room temperature for 10 minutes.
(§8) Step 8: The detection reagent prepared with detection diluent was added, and the mixture was incubated in the dark at room temperature for 3 hours. At the end of incubation, the samples were washed once with wash buffer and resuspended for detection.
(§9) The concentrations of IL-6 and TNFα were calculated using the standard curve method. Data presentation and IC50 calculation were performed using Prism 8.0.2.

[2] = Dog pharmacokinetics, oral gavage (Experiment 3); type: in vivo; settings: Beagle dogs, oral gavage 2.5 mg/kg, plasma
Procedure: Healthy Beagle dogs, male, weighing about 8-10 kg, 3 animals per group.
The animals were not fasted and had free access to water.
Venous blood (0.5-0.8 mL) was collected at 15 minutes, 30 minutes, 1 hour, 2 hours, 4 hours, 8 hours, and 24 hours after oral gavage administration, placed in K2EDTA tubes, and centrifuged at 4°C to separate plasma. The concentration of the compound in plasma was determined by liquid chromatography-tandem mass spectrometry.
The main pharmacokinetic parameters were calculated using WinNonlin. […] Table 8. Pharmacokinetic parameters of some compounds of the present disclosure administered orally to dogs

[3] = target: hERG potassium channel (Homo sapiens, UniProt Q12809); assay: Inhibition of hERG potassium channel, whole-cell manual patch clamp in CHO-hERG cells; settings: @ 1 µM test compound
Procedure: The effects of compounds on hERG potassium channel (human Ether-a-go-go Related Gene potassium channel) currents were tested using the whole-cell manual voltage-clamp electrophysiological method.
CHO cells stably expressing hERG were cultured in cell culture dishes with a diameter of 35 mm and incubated at 37°C in a 5% CO2 incubator. The cells were passaged at a ratio of 1:5 every 48 hours. The culture medium was formulated as follows: 90% F12 (Invitrogen), 10% fetal bovine serum (Gibco), 100 g/mL G418 (Invitrogen), and 100 g/mL Hygromycin B (Invitrogen). On the day of the experiment, the cell culture medium was aspirated, and the cells were rinsed once with extracellular solution. […] The digestion solution was aspirated, and the cells were resuspended in extracellular solution and then transferred to experimental dishes for electrophysiological recording for later use.
On the day of testing, the compounds were prepared as 10 mM stock solutions in DMSO, then diluted to 1 mM with DMSO, and further diluted 1000-fold with extracellular solution to obtain the desired final test concentration.
hERG potassium channel currents were recorded at room temperature using the whole-cell patch-clamp technique in CHO cells stably expressing the hERG channel. The glass microelectrode was prepared by pulling the glass electrode blank (BF150-86-10, Sutter) with a puller, and the tip resistance after filling with the internal electrode solution was about 2-5 MΩ. The glass microelectrode was inserted into the amplifier probe and then connected to the patch-clamp amplifier. The clamping voltage and data recording were controlled and recorded by pClamp software via a computer, with a sampling frequency of 10 kHz and a filtering frequency of 2 kHz. After obtaining the whole-cell recording, cells were clamped at -100 mV. The hERG potassium current (IhERG) was evoked by applying a 2 s depolarizing voltage step from -100 mV to +20 mV, followed by repolarization to -50 mV for 1 s before returning to -100 mV. […]
Data were analyzed and processed using pClamp, GraphPad Prism 8 and Excel software. […]

[4] = system: TNFα secretion; assay: Inhibition of induced TNFα secretion in human PBMCs (CBA); type: cell-based; settings: PBMC
Procedure: as §1, §2, §3, §4, §5, §6, §7, §8, §9

[5] = target: T1, IRAK4 (Homo sapiens, UniProt Q9NWZ3); assay: Degradation of IRAK4 in SU-DHL-2 cells (flow cytometry); type: cell-based; set-up: The degradation level of IRAK4 protein in SU-DHL-2 cell line by the compounds was detected by flow cytometry; endogenous in cells; host or cells: SU-DHL-2; OCI-LY3; settings: SU-DHL-2 cells, 24 hours incubation; read-out: SU-DHL-2 DC50
T1 sequence (Q9NWZ3 1-460): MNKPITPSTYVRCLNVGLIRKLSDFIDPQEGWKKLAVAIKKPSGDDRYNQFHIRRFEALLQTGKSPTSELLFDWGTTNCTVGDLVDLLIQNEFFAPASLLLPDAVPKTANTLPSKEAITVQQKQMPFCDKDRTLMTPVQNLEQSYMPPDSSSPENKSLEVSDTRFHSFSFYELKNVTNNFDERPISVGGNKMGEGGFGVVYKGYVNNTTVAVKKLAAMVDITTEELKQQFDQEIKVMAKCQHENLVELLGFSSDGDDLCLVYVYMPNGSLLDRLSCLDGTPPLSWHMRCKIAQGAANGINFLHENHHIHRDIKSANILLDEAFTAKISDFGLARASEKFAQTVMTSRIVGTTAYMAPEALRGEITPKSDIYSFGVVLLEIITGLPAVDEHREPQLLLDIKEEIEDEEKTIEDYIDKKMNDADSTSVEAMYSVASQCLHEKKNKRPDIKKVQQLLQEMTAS

[6] = IL-1β 100 ng/mL, read-out: IC50 of compounds against induced secretion, IL-6, IL-1β
[7] = LPS 100 ng/mL, read-out: IC50 of compounds against induced secretion, IL-6, LPS
[8] = R848 1 µg/mL, read-out: IC50 of compounds against induced secretion, IL-6, R848
[9] = IL-1β 100 ng/mL, read-out: IC50, TNFα secretion induced by IL-1β
[10] = LPS 100 ng/mL, read-out: IC50, TNFα secretion induced by LPS
[11] = R848 1 µg/mL, read-out: IC50, TNFα secretion induced by R848

hERG potassium channel, sequence (Q12809 whole entry): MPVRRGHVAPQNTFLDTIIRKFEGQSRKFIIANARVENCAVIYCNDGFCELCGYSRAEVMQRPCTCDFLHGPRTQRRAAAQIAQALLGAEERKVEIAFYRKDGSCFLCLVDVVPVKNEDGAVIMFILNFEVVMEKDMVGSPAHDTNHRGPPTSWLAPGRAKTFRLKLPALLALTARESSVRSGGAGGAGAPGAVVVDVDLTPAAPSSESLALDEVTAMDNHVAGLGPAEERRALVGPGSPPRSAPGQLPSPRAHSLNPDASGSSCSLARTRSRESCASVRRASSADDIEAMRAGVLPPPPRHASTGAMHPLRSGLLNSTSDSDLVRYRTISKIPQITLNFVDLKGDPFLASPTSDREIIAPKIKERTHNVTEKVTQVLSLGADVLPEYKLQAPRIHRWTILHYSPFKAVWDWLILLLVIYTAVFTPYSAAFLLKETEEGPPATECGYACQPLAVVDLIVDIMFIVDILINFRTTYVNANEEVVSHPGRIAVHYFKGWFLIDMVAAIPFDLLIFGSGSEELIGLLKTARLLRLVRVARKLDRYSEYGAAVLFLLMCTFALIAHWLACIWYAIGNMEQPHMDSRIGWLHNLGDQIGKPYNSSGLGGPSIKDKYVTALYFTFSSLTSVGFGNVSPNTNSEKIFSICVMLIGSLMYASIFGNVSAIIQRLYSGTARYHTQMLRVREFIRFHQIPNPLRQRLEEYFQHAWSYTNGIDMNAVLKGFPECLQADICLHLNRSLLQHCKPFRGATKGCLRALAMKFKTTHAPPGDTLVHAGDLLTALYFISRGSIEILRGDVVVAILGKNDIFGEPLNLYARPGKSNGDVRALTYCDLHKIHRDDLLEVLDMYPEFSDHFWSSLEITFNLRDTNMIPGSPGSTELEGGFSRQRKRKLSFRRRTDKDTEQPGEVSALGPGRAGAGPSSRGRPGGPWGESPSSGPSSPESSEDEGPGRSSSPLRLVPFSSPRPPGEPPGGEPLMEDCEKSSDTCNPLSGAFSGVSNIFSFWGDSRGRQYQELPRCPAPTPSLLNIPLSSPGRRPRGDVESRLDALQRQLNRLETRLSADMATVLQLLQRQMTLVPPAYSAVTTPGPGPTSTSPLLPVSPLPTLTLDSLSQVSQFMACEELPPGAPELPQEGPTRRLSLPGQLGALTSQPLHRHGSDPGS

| Compound | IC50 [1, 6] | IC50 [1, 7] | IC50 [1, 8] | AUC(0-t) at 24 h [2] | Cmax [2] | MRT inf [2] | half-life [2] | hERG (inhibition%) [3] | IC50 [4, 9] | IC50 [4, 10] | IC50 [4, 11] | DC50 [5] |
| --- | --- | --- | --- | --- | --- | --- | --- | --- | --- | --- | --- | --- |
| Cn1c(=O)n(C2CCC(=O)NC2=O)c2cccc(C#CCCN3CCC4(CC3)CC(n3cc(NC(=O)c5cnn6ccc(N7C[C@H]8C[C@@H]7CO8)nc56)c(C(F)F)n3)C4)c21 (stereo partly drawn) [Example 22] | 1 nM | 0.5 nM | 0.16 nM | 1190 ng·h/mL | 100 ng/mL | 11.2 h | 7.6 h | 36% @ 1 µM | 0.16 nM | 1.2 nM | 1.4 nM | 1.4 nM |
| Cn1c(=O)n(C2CCC(=O)NC2=O)c2cccc(C#CCOC34CCC(CN5CCC6(CC5)CC(n5cc(NC(=O)c7cnn8ccc(N9C[C@H]%10C[C@@H]9CO%10)nc78)c(C(F)F)n5)C6)(CC3)CC4)c21 (stereo partly drawn) [Example 52] | 8.9 nM | 8.4 nM | 20.3 nM | 1160 ng·h/mL | 78 ng/mL | 20.2 h | 13.4 h | 16% @ 1 µM | 13.9 nM | 8.5 nM | 21.5 nM | 3 nM |
